Measured values from patent publication US9040545B2, “Heterocyclyl pyrazolopyrimidine analogues as selective JAK inhibitors” (Cellzome Limited, priority 2010, dated 2015).

Target: T1, JAK3 (Homo sapiens, UniProt P52333)
T1 construct: endogenous in cells; host or cells: mixed Molt4/Ramos lysate (1:2)
T1 sequence (P52333 1-1124): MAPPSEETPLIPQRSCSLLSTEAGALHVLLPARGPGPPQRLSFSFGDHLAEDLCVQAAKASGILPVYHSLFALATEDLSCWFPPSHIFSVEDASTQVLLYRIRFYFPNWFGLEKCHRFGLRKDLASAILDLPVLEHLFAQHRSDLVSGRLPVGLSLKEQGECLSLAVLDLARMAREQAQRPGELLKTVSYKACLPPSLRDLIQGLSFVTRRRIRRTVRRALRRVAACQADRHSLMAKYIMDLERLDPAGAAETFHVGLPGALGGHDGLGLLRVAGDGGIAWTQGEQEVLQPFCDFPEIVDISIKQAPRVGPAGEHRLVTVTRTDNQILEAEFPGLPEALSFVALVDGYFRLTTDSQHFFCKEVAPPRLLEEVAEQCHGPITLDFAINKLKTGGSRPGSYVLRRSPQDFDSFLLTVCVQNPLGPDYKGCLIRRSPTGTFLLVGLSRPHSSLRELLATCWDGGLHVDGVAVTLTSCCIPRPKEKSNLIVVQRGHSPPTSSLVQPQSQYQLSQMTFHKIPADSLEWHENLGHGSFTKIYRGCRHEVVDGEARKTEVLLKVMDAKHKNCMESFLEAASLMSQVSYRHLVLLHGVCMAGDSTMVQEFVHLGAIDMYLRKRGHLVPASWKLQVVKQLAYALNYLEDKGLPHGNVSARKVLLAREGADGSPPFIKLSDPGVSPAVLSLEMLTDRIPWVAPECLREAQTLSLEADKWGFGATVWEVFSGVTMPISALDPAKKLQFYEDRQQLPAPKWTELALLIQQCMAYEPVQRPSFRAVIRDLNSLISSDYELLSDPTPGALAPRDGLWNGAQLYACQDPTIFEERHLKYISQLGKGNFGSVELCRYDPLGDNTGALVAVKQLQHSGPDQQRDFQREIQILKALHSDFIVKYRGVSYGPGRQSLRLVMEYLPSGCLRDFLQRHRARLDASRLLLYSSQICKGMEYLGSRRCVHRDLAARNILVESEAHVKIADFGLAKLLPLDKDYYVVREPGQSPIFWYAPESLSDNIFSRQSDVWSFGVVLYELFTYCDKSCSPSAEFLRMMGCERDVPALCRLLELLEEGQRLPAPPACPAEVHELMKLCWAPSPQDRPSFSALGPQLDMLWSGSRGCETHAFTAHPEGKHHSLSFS
Assay: Kinobeads assay, JAK3
Assay type: binding
Settings: mixed Molt4/Ramos lysate, read-out: Inhibition values (IC50) JAK3
Method: The compounds of the present invention as described in the previous examples were tested in a Kinobeads™ assay as described for ZAP-70 (WO-A 2007/137867). Briefly, test compounds (at various concentrations) and the affinity matrix with the immobilized aminopyrido-pyrimidine ligand 24 were added to cell lysate aliquots and allowed to bind to the proteins in the lysate sample. After the incubation time the beads with captured proteins were separated from the lysate. Bound proteins were then eluted and the presence of JAK2 and JAK3 was detected and quantified using specific antibodies in a dot blot procedure and the Odyssey infrared detection system. Dose response curves for individual kinases were generated and IC50 values calculated. Kinobeads™ assays for ZAP-70 (WO-A 2007/137867) and for kinase selectivity profiling (WO-A 2006/134056) have been previously described.
The affinity matrix was washed two times with 15 mL of 1×DP buffer containing 0.2% NP40 (IGEPAL® CA-630, Sigma, #I3021) and then resuspended in 1×DP buffer containing 0.2% NP40 (3% beads slurry).
5×DP buffer 250 mM Tris-HCl pH 7.4, 25% Glycerol, 7.5 mM MgCl2, 750 mM NaCl, 5 mM Na3VO4; filter the 5×DP buffer through a 0.22 μm filter and store in aliquots at −80° C. The 5×DP buffer is diluted with H2O to 1×DP buffer containing 1 mM DTT and 25 mM NaF.
Stock solutions of test compounds were prepared in DMSO. In a 96 well plate 30 μL solution of diluted test compounds at 5 mM in DMSO were prepared. Starting with this solution a 1:3 dilution series (9 steps) was prepared. For control experiments (no test compound) a buffer containing 2% DMSO was used.
Molt4 cells (ATCC catalogue number CRL-1582) and Ramos cells (ATCC catalogue number CRL-1596) were grown in 1 L Spinner flasks (Integra Biosciences, #182101) in suspension in RPMI 1640 medium (Invitrogen, #21875-034) supplemented with 10% Fetal Bovine Serum (Invitrogen) at a density between 0.15×106 and 1.2×10^6 cells/mL. Cells were harvested by centrifugation, washed once with 1×PBS buffer (Invitrogen, #14190-094) and cell pellets were frozen in liquid nitrogen and subsequently stored at −80° C. Cells were homogenized in a Potter S homogenizer in lysis buffer: 50 mM Tris-HCl, 0.8% NP40, 5% glycerol, 150 mM NaCl, 1.5 mM MgCl2, 25 mM NaF, 1 mM sodium vanadate, 1 mM DTT, pH 7.5. One complete EDTA-free tablet (protease inhibitor cocktail, Roche Diagnostics, 1873580) per 25 mL buffer was added. The material was dounced 10 times using a mechanized POTTER S, transferred to 50 mL falcon tubes, incubated for 30 minutes on ice and spun down for 10 minutes at 20,000 g at 4° C. (10,000 rpm in Sorvall SLA600, precooled). The supernatant was transferred to an ultracentrifuge (UZ)-polycarbonate tube (Beckmann, 355654) and spun for 1 hour at 100,000 g at 4° C. (33.500 rpm in Ti50.2, precooled). The supernatant was transferred again to a fresh 50 mL falcon tube, the protein concentration was determined by a Bradford assay (BioRad) and samples containing 50 mg of protein per aliquot were prepared. The samples were immediately used for experiments or frozen in liquid nitrogen and stored frozen at −80° C.
Cell lysate (approximately 50 mg protein per plate) was thawed in a water bath at room temperature and then stored on ice. To the thawed cell lysate 1×DP 0.8% NP40 buffer containing protease inhibitors (1 tablet for 25 mL buffer; EDTA-free protease inhibitor cocktail; Roche Diagnostics 1873580) was added in order to reach a final protein concentration of 10 mg/mL total protein. The diluted cell lysate was stored on ice. Mixed Molt4/Ramos lysate was prepared by combining one volume of Molt4 lysate and two volumes of Ramos lysate (ratio 1:2).
To a 96 well filter plate (Multiscreen HTS, BV Filter Plates, Millipore #MSBVN1250) were added per well: 100 μL affinity matrix (3% beads slurry), 3 μL of compound solution, and 50 μL of diluted lysate. […]

IC50 [nM]	SMILES
< 100	C[C@@H]1COCCN1c1cccc(Cn2ncc3cnc(Nc4cnn(C)c4)nc32)n1 [Example 1, (R)—N-(1-Methyl-1H-pyrazol-4-yl)-1-((6-(3-methylmorpholino)pyridin-2-yl)methyl)-1H-pyrazolo[3,4-d]pyrimidin-6-amine]
< 100	Cn1cc(Nc2ncc3cnn(Cc4cccc(N5CCOCC5)c4)c3n2)cn1 [Example 2, N-(1-Methyl-1H-pyrazol-4-yl)-1-(3-morpholinobenzyl)-1H-pyrazolo[3,4-d]pyrimidin-6-amine]
< 100	Cn1cc(Nc2ncc3cnn(Cc4cccc(N5CCOCC5)n4)c3n2)cn1 [Example 3, N-(1-Methyl-1H-pyrazol-4-yl)-1-((6-morpholinopyridin-2-yl)methyl)-1H-pyrazolo[3,4-d]pyrimidin-6-amine]
< 100	CN(C)CCCn1cc(Nc2ncc3cnn(Cc4cccc(N5CCOCC5)c4)c3n2)cn1 [Example 4, N-(1-(3-(Dimethylamino)propyl)-1H-pyrazol-4-yl)-1-(3-morpholinobenzyl)-1H-pyrazolo[3,4-d]pyrimidin-6-amine]
< 100	OCCn1cc(Nc2ncc3cnn(Cc4cccc(N5CCOCC5)c4)c3n2)cn1 [Example 5, 2-(4-((1-(3-Morpholinobenzyl)-1H-pyrazolo[3,4-d]pyrimidin-6-yl)amino)-1H-pyrazol-1-yl)ethanol]
< 100	Cn1cc(Nc2ncc3cnn(Cc4cccc(C(=O)N5CCOCC5)c4)c3n2)cn1 [Example 6, (3-((6-((1-Methyl-1H-pyrazol-4-yl)amino)-1H-pyrazolo[3,4-d]pyrimidin-1-yl)methyl)phenyl)(morpholino)methanone]
< 100	Cn1cc(Nc2ncc3cnn(Cc4cccc(CN5CCOCC5)c4)c3n2)cn1 [Example 7, N-(1-Methyl-1H-pyrazol-4-yl)-1-(3-(morpholinomethyl)benzyl)-1H-pyrazolo[3,4-d]pyrimidin-6-amine]
100 to 1000	Cn1cc(Nc2ncc3cnn(Cc4cccc(N5CCCCC5)c4)c3n2)cn1 [Example 8, N-(1-Methyl-1H-pyrazol-4-yl)-1-(3-(piperidin-1-yl)benzyl)-1H-pyrazolo[3,4-d]pyrimidin-6-amine]
< 100	Cn1cc(Nc2ncc3cnn(Cc4cccc(C5CCOCC5)c4)c3n2)cn1 [Example 9, N-(1-Methyl-1H-pyrazol-4-yl)-1-(3-(tetrahydro-2H-pyran-4-yl)benzyl)-1H-pyrazolo[3,4-d]pyrimidin-6-amine]
< 100	CN1CCN(c2cccc(Cn3ncc4cnc(Nc5cnn(C)c5)nc43)c2)CC1 [Example 10, N-(1-Methyl-1H-pyrazol-4-yl)-1-(3-(4-methylpiperazin-1-yl)benzyl)-1H-pyrazolo[3,4-d]pyrimidin-6-amine]
< 100	Cc1c(Cn2ncc3cnc(Nc4cnn(C)c4)nc32)cccc1N1CCOCC1 [Example 11, N-(1-Methyl-1H-pyrazol-4-yl)-1-(2-methyl-3-morpholinobenzyl)-1H-pyrazolo[3,4-d]pyrimidin-6-amine]
< 100	CNC(=O)Cn1cc(Nc2ncc3cnn(Cc4cccc(N5CCOCC5)c4)c3n2)cn1 [Example 12, N-Methyl-2-(4-((1-(3-morpholinobenzyl)-1H-pyrazolo[3,4-d]pyrimidin-6-yl)amino)-1H-pyrazol-1-yl)acetamide]
100 to 1000	CCOC(=O)C1CCCN(c2cccc(Cn3ncc4cnc(Nc5cnn(C)c5)nc43)c2)C1 (stereo not drawn) [Example 13, Ethyl 1-(3-((6-((1-methyl-1H-pyrazol-4-yl)amino)-1H-pyrazolo[3,4-d]pyrimidin-1-yl)methyl)phenyl)piperidine-3-carboxylate]
< 100	NC(=O)CCn1cc(Nc2ncc3cnn(Cc4cccc(N5CCOCC5)c4)c3n2)cn1 [Example 14, 3-(4-((1-(3-Morpholinobenzyl)-1H-pyrazolo[3,4-d]pyrimidin-6-yl)amino)-1H-pyrazol-1-yl)propanamide]
100 to 1000	Cn1cc(Nc2ncc3cnn(Cc4cc(N5CCOCC5)ccc4F)c3n2)cn1 [Example 15, 1-(2-Fluoro-5-morpholinobenzyl)-N-(1-methyl-1H-pyrazol-4-yl)-1H-pyrazolo[3,4-d]pyrimidin-6-amine]
< 100	CN(C)C(=O)CCn1cc(Nc2ncc3cnn(Cc4cccc(N5CCOCC5)c4)c3n2)cn1 [Example 16, N,N-Dimethyl-3-(4-((1-(3-morpholinobenzyl)-1H-pyrazolo[3,4-d]pyrimidin-6-yl)amino)-1H-pyrazol-1-yl)propanamide]
< 100	Cn1cc(Nc2ncc3cnn(Cc4c(F)c(F)cc(N5CCOCC5)c4F)c3n2)cn1 [Example 17, N-(1-Methyl-1H-pyrazol-4-yl)-1-(2,3,6-trifluoro-5-morpholinobenzyl)-1H-pyrazolo[3,4-d]pyrimidin-6-amine]
< 100	OCCCn1cc(Nc2ncc3cnn(Cc4cccc(N5CCOCC5)c4)c3n2)cn1 [Example 18, 3-(4-((1-(3-Morpholinobenzyl)-1H-pyrazolo[3,4-d]pyrimidin-6-yl)amino)-1H-pyrazol-1-yl)propan-1-ol]
100 to 1000	Cn1cc(Nc2ncc3cnn(Cc4cccc(N5CCC(F)(F)CC5)c4)c3n2)cn1 [Example 19, 1-(3-(4,4-Difluoropiperidin-1-yl)benzyl)-N-(1-methyl-1H-pyrazol-4-yl)-1H-pyrazolo[3,4-d]pyrimidin-6-amine]
< 100	O=C(CCn1cc(Nc2ncc3cnn(Cc4cccc(N5CCOCC5)c4)c3n2)cn1)N1CCCCC1 [Example 20, 3-(4-((1-(3-Morpholinobenzyl)-1H-pyrazolo[3,4-d]pyrimidin-6-yl)amino)-1H-pyrazol-1-yl)-1-(piperidin-1-yl)propan-1-one]
< 100	Cn1cc(Nc2ncc3cnn(Cc4cccc(N5CCOCC5)c4F)c3n2)cn1 [Example 21, 1-(2-Fluoro-3-morpholinobenzyl)-N-(1-methyl-1H-pyrazol-4-yl)-1H-pyrazolo[3,4-d]pyrimidin-6-amine]
